In brackets after ≈: the same amount, converted by molar mass. Activity calls are given as the source filed them. No cut-off for these calls is given here.

In assay [1] the test system is Aspergillus niger. Nature of the assay: Antifungal activity against Aspergillus niger after 72 to 96 hr by two-fold serial dilution method. The format is functional.
Assay [2] deals with Aspergillus flavus. Nature of the assay: Antifungal activity against Aspergillus flavus after 72 to 96 hr by two-fold serial dilution method. Type of assay: functional.
The test system of assay [3] is Rhizopus. Nature of the assay: Antifungal activity against Rhizopus sp. after 72 to 96 hr by two-fold serial dilution method. The format is functional.
In assay [4] the test system is Pseudomonas aeruginosa. Nature of the assay: Antibacterial activity against Pseudomonas aeruginosa after 24 hr by twofold serial dilution method. The format is functional.
Assay [5] deals with Cryptococcus neoformans. As to the kind of experiment: Antifungal activity against Cryptococcus neoformans after 72 to 96 hr by two-fold serial dilution method. Type of assay: functional.
Assay [6] has as its system Escherichia coli. Nature of the assay: Antibacterial activity against Escherichia coli after 24 hr by two-fold serial dilution method. The format is functional.
In assay [7] the test system is Candida albicans. As to the kind of experiment: Antifungal activity against Candida albicans after 72 to 96 hr by two-fold serial dilution method. The format is functional.
Assay [8] concerns Salmonella typhi. Nature of the assay: Antibacterial activity against Salmonella enterica subsp. enterica serovar Typhi after 24 hr by twofold serial dilution method. The format is functional.
The test system of assay [9] is Bacillus subtilis. As to the kind of experiment: Antibacterial activity against Bacillus subtilis after 24 hr by two-fold serial dilution method. The format is functional.
Assay [10] deals with Staphylococcus aureus. As to the kind of experiment: Antibacterial activity against Staphylococcus aureus after 24 hr by two-fold serial dilution method. The format is functional.
Assay [11] concerns Bacillus subtilis. As to the kind of experiment: Antibacterial activity against Bacillus subtilis assessed as growth inhibition at 200 ug/mL after 24 hr by two-fold serial dilution method. Type of assay: functional, organism-based.
For assay [12], the system named is Cryptococcus neoformans. Nature of the assay: Antifungal activity against Cryptococcus neoformans assessed as growth inhibition at 200 ug/mL after 72 to 96 hr by two-fold serial dilution method. Type of assay: functional, organism-based.
Assay [13] has as its system Rhizopus. As to the kind of experiment: Antifungal activity against Rhizopus sp. assessed as growth inhibition at 200 ug/mL after 72 to 96 hr by two-fold serial dilution method. Type of assay: functional, organism-based.
Assay [14] has as its system Escherichia coli. Nature of the assay: Antibacterial activity against Escherichia coli assessed as growth inhibition at 200 ug/mL after 24 hr by two-fold serial dilution method. Type of assay: functional, organism-based.
Assay [15] deals with Aspergillus niger. Nature of the assay: Antifungal activity against Aspergillus niger assessed as growth inhibition at 200 ug/mL after 72 to 96 hr by two-fold serial dilution method. The format is functional, organism-based.
Assay [16] has as its system Aspergillus flavus. Nature of the assay: Antifungal activity against Aspergillus flavus assessed as growth inhibition at 200 ug/mL after 72 to 96 hr by two-fold serial dilution method. Type of assay: functional, organism-based.

With `CC1C(=O)C(C)C(c2ccc(Cl)cc2)N(C(=O)CCl)C1c1ccc(Cl)cc1` (configuration not stated), the MIC came out at 50 µg/mL (≈ 118 µM) in assay [1]; 100 µg/mL (≈ 235 µM) in [2]; 100 µg/mL (≈ 235 µM) in [3]; 100 µg/mL (≈ 235 µM) in assay [4]; 50 µg/mL (≈ 118 µM) in assay [5]; 50 µg/mL (≈ 118 µM) in assay [6]. The minimum inhibitory concentration (MIC) in [7] was 200 µg/mL (≈ 471 µM); in assay [8] it was 25 µg/mL (≈ 58.9 µM); in [9], 100 µg/mL (≈ 235 µM); in [10] it was 12.5 µg/mL (≈ 29.4 µM).

With `O=C(O)c1cn(C2CC2)c2cc(N3CCNCC3)c(F)cc2c1=O` [CIPROFLOXACIN], the MIC in assay [6] was 25 µg/mL (≈ 75.4 µM); in assay [8], 50 µg/mL (≈ 151 µM).

With `CN[C@@H]1[C@H](O[C@H]2[C@H](O[C@H]3[C@H](O)[C@@H](O)[C@H](N=C(N)N)[C@@H](O)[C@@H]3N=C(N)N)O[C@@H](C)[C@]2(O)C=O)O[C@@H](CO)[C@H](O)[C@H]1O` [STREPTOMYCIN], the MIC in [4] turned out to be 50 µg/mL (≈ 86 µM); in [6], 50 µg/mL (≈ 86 µM); in [8], 25 µg/mL (≈ 43 µM); in assay [9] it was 12.5 µg/mL (≈ 21.5 µM); in assay [10], 25 µg/mL (≈ 43 µM).

As for `COc1ccc(C2CC(=O)C(C)C(c3ccc(OC)cc3)N2C(=O)CCl)cc1` (configuration not stated), the MIC is 50 µg/mL (≈ 124 µM) in assay [1]; 50 µg/mL (≈ 124 µM) in [2]; 25 µg/mL (≈ 62.2 µM) in assay [3]; 50 µg/mL (≈ 124 µM) in [4]; 100 µg/mL (≈ 249 µM) in [5]; 100 µg/mL (≈ 249 µM) in assay [6]. The minimal inhibitory concentration (MIC) was determined as 100 µg/mL (≈ 249 µM) in assay [7], 100 µg/mL (≈ 249 µM) in assay [8], 200 µg/mL (≈ 498 µM) in [9] and 25 µg/mL (≈ 62.2 µM) in assay [10].

For the compound `C[C@@H]1[C@H](O)[C@@H](C)/C=C/C=C/C=C/C=C/C=C/C=C/C=C/[C@H](O[C@@H]2O[C@H](C)[C@@H](O)[C@H](N)[C@@H]2O)C[C@@H]2O[C@](O)(C[C@@H](O)C[C@@H](O)[C@H](O)CC[C@@H](O)C[C@@H](O)CC(=O)O[C@H]1C)C[C@H](O)[C@H]2C(=O)O` [AMPHOTERICIN B], the minimum inhibitory concentration (MIC) in [1] turned out to be 50 µg/mL (≈ 54.1 µM); in assay [2] it was 50 µg/mL (≈ 54.1 µM); in assay [3], 25 µg/mL (≈ 27.1 µM); in [5], 25 µg/mL (≈ 27.1 µM); in [7], 25 µg/mL (≈ 27.1 µM).

With `Cc1ccc(C2C(C)C(=O)C(C)C(c3ccc(C)cc3)N2C(=O)CCl)cc1` (configuration not stated), the MIC in assay [1] amounted to 100 µg/mL (≈ 260 µM); in [2], 50 µg/mL (≈ 130 µM); in assay [3] it was 25 µg/mL (≈ 65.1 µM); in assay [4], 200 µg/mL (≈ 521 µM); in assay [5], 50 µg/mL (≈ 130 µM); in [6], 50 µg/mL (≈ 130 µM). The MIC in assay [7] amounted to 50 µg/mL (≈ 130 µM); in assay [8], 100 µg/mL (≈ 260 µM); in assay [9], 100 µg/mL (≈ 260 µM); in assay [10], 200 µg/mL (≈ 521 µM).

As to `Cc1ccc(C2CC(=O)C(C)C(c3ccc(C)cc3)N2C(=O)CCl)cc1` (configuration not stated), the MIC in assay [1] worked out at 12.5 µg/mL (≈ 33.8 µM); in [2], 12.5 µg/mL (≈ 33.8 µM); in assay [3], 50 µg/mL (≈ 135 µM); in [4], 100 µg/mL (≈ 270 µM); in [5], 25 µg/mL (≈ 67.6 µM); in assay [6], 25 µg/mL (≈ 67.6 µM). The MIC in assay [7] was 50 µg/mL (≈ 135 µM); in assay [8], 50 µg/mL (≈ 135 µM); in [9], 12.5 µg/mL (≈ 33.8 µM); in assay [10] it was 100 µg/mL (≈ 270 µM).

In the case of `COc1ccc(C2C(C)C(=O)C(C)C(c3ccc(OC)cc3)N2C(=O)CCl)cc1` (configuration not stated), the MIC in assay [1] came to 25 µg/mL (≈ 60.1 µM); in assay [2], 50 µg/mL (≈ 120 µM); in assay [3] it was 100 µg/mL (≈ 240 µM); in [4] it was 100 µg/mL (≈ 240 µM); in [5], 100 µg/mL (≈ 240 µM); in assay [6], 100 µg/mL (≈ 240 µM). Besides, the MIC worked out at 100 µg/mL (≈ 240 µM) in [7], 25 µg/mL (≈ 60.1 µM) in assay [8], 50 µg/mL (≈ 120 µM) in assay [9] and 50 µg/mL (≈ 120 µM) in assay [10].

Turning to `O=C1CC(c2ccccc2)N(C(=O)CCl)C(c2ccccc2)C1` (configuration not stated), the MIC is 100 µg/mL (≈ 305 µM) in [2]; 100 µg/mL (≈ 305 µM) in [4]; 200 µg/mL (≈ 610 µM) in assay [7]; 50 µg/mL (≈ 153 µM) in assay [8]; 200 µg/mL (≈ 610 µM) in assay [10]. Also, the “growth inhibition (GI)” value in assay [11], in assay [12], in [13], in assay [14] and in assay [15] was “inactive” throughout.

For the compound `CCC1C(=O)CC(c2ccc(Cl)cc2)N(C(=O)CCl)C1c1ccc(Cl)cc1` (configuration not stated), the MIC in assay [1] came to 12.5 µg/mL (≈ 29.4 µM); in [2], 25 µg/mL (≈ 58.9 µM); in assay [3], 50 µg/mL (≈ 118 µM); in assay [4], 50 µg/mL (≈ 118 µM); in assay [5], 50 µg/mL (≈ 118 µM); in [6], 50 µg/mL (≈ 118 µM). Besides, the MIC in assay [7] is 100 µg/mL (≈ 235 µM); in assay [8] it was 12.5 µg/mL (≈ 29.4 µM); in assay [9], 25 µg/mL (≈ 58.9 µM); in assay [10], 25 µg/mL (≈ 58.9 µM).

Regarding `CC1C(=O)CC(c2ccccc2)N(C(=O)CCl)C1c1ccccc1` (configuration not stated), the minimal inhibitory concentration (MIC) was found to be 200 µg/mL (≈ 585 µM) in assay [1]; 200 µg/mL (≈ 585 µM) in assay [2]; 100 µg/mL (≈ 293 µM) in assay [3]; 200 µg/mL (≈ 585 µM) in assay [4]; 100 µg/mL (≈ 293 µM) in assay [5]; 100 µg/mL (≈ 293 µM) in assay [6]. In addition, the MIC in [7] is 200 µg/mL (≈ 585 µM); in [8] it was 50 µg/mL (≈ 146 µM); in assay [9], 100 µg/mL (≈ 293 µM); in assay [10], 100 µg/mL (≈ 293 µM).

Regarding `CC1C(=O)CC(c2ccc(Cl)cc2)N(C(=O)CCl)C1c1ccc(Cl)cc1` (configuration not stated), the MIC turned out to be 50 µg/mL (≈ 122 µM) in assay [1]; 25 µg/mL (≈ 60.9 µM) in assay [2]; 25 µg/mL (≈ 60.9 µM) in assay [3]; 12.5 µg/mL (≈ 30.4 µM) in [4]; 100 µg/mL (≈ 243 µM) in assay [5]; 25 µg/mL (≈ 60.9 µM) in assay [6]. Moreover, the MIC was 100 µg/mL (≈ 243 µM) in assay [7], 100 µg/mL (≈ 243 µM) in assay [8], 100 µg/mL (≈ 243 µM) in assay [9] and 50 µg/mL (≈ 122 µM) in assay [10].

For the compound `CC(C)C1C(=O)CC(c2ccccc2)N(C(=O)CCl)C1c1ccccc1` (configuration not stated), the MIC came to 100 µg/mL (≈ 270 µM) in assay [1]; 100 µg/mL (≈ 270 µM) in assay [3]; 200 µg/mL (≈ 541 µM) in assay [4]; 200 µg/mL (≈ 541 µM) in assay [5]; 200 µg/mL (≈ 541 µM) in assay [6]; 50 µg/mL (≈ 135 µM) in assay [7]. Also, the MIC amounted to 100 µg/mL (≈ 270 µM) in [8], 200 µg/mL (≈ 541 µM) in assay [9] and 100 µg/mL (≈ 270 µM) in [10]. Also, in assay [16], the “growth inhibition (GI)” value is “inactive”.
